IC50 data for 26 molecules are collected here from patent US8785457B2 (Cellzome Limited, priority 2009, dated 2014).

pIC50: −log10 of the molar value. Like-named read-outs stand apart in the source and are kept apart here. Bounds are passed on as bounds.

In one assay the target is T1, PI3 Kbeta (PI3 Kb) (Homo sapiens, UniProt P42338).
T1 construct: endogenous in cells; host or cells: cell lysate
As to the kind of experiment: kinobeads assay, PI3Kbeta. Type of assay: binding. The essentials: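 Competitive binding in cell lysate: test compounds at various concentrations compete with beads carrying an immobilized phenylmorpholin-chromen ligand. Bead-captured kinases are eluted and quantified by multiplexed immunodetection. IC50 values come from dose-response curves for each kinase.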

Assay [1] relates to S6RP serine-240/244 phosphorylation. The experiment in a line: In vitro Phospho-S6 cellular assay (pS6RP S240/244) in HEK293T/17 cells. Type of assay: cell-based. The settings on record: Homo sapiens, 2 hours, read-out: pS6 IC50. An outline of the steps: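 HEK293T/17 cells were seeded at 40,000 (pS6RP) or 80,000 (pAkt) cells/well in DMEM with 2% FCS. They were exposed to 8 compound concentrations (0.1% DMSO) for 2 h at 37 °C and then lysed. Phosphoprotein was quantified by MesoScale electrochemiluminescence sandwich immunoassay, and the sigmoidal variable-slope dose-response was fitted.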

Where [2] appears, read: kinobeads assay, Table 6, read-out: Inhibition values (IC50) PI3Kb.
[3] abbreviates: Further Kinobeads Data, read-out: PI3Kb.

T1 sequence (P42338 whole entry): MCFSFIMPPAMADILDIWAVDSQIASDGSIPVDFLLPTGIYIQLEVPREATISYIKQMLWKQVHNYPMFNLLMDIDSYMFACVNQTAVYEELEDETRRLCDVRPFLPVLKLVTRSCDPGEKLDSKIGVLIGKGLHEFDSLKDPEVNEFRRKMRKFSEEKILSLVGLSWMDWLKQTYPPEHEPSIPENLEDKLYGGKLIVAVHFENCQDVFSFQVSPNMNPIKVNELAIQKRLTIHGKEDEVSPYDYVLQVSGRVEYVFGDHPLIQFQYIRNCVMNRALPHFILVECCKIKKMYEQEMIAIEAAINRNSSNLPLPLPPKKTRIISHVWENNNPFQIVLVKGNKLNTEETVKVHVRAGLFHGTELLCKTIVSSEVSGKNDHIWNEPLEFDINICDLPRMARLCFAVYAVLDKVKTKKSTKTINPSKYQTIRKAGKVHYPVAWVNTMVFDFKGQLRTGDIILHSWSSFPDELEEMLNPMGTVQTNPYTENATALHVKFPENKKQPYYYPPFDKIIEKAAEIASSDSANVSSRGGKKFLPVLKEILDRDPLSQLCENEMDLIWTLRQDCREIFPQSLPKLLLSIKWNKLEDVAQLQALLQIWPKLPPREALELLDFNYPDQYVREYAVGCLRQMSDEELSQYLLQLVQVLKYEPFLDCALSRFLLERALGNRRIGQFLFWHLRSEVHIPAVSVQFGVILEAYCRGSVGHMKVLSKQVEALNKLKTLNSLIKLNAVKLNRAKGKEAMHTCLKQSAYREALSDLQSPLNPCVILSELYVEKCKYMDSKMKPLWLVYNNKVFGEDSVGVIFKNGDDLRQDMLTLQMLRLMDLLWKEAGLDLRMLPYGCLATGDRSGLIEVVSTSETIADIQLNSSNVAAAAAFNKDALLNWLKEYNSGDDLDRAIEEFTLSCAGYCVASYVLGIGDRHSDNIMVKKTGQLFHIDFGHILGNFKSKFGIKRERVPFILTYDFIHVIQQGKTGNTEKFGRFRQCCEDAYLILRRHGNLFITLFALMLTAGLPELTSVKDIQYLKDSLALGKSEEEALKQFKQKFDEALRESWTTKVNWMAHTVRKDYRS
T1 sequence (P27986 whole entry partner): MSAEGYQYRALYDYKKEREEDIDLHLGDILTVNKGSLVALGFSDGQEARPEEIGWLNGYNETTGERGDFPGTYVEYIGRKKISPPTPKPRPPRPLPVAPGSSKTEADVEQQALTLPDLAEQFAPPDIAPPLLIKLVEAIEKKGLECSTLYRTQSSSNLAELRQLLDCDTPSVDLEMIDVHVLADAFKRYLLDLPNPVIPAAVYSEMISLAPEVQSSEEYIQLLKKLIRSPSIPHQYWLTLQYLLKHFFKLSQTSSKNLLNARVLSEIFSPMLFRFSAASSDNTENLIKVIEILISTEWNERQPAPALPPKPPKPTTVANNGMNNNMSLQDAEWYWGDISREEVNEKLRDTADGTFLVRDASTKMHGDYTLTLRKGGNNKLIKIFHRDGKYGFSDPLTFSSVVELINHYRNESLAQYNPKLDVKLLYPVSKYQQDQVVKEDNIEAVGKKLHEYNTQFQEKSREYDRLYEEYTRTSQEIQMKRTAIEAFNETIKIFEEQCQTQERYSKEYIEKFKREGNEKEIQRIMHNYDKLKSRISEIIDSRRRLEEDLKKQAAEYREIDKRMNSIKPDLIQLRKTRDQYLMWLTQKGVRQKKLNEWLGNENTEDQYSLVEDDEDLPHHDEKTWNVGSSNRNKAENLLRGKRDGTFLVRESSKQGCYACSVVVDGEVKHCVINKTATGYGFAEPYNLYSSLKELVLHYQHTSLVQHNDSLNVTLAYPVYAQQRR

On to `CCNC(=O)Nc1ccc(-c2nc3c(c(N4CCOC[C@@H]4C)n2)CN(C(=O)C(C)C)C3)cc1` [Example 21, (S)-1-ethyl-3-(4-(6-isobutyryl-4-(3-methylmorpholino)-6,7-dihydro-5H-pyrrolo[3,4-d]pyrimidin-2-yl)phenyl)urea], for which the results for the pIC50 (on PI3 Kbeta (PI3 Kb) (setting [2]); in assay [1]) were less than 5.00 and 6.95, respectively.
Turning to `CCNC(=O)Nc1ccc(-c2nc3c(c(N4CCOC[C@@H]4C)n2)CN(C(=O)C2CC2)C3)cc1` [Example 23, (S)-1-(4-(6-(cyclopropanecarbonyl)-4-(3-methylmorpholino)-6,7-dihydro-5H-pyrrolo[3,4-d]pyrimidin-2-yl)phenyl)-3-ethylurea], the pIC50 is less than 5.00 at PI3 Kbeta (PI3 Kb) (setting [2]) and 6.94 in assay [1].
In the same order, the values of `CCNC(=O)Nc1ccc(-c2nc3c(c(N4CCOC[C@@H]4C)n2)CCN(C(=O)c2ccc(F)cc2)C3)cc1` [Example 24, (S)-1-ethyl-3-(4-(7-(4-fluorobenzoyl)-4-(3-methylmorpholino)-5,6,7,8-tetrahydropyrido[3,4-d]pyrimidin-2-yl)phenyl)urea] are less than 5.00 and 6.90.
As to `C[C@H]1COCCN1c1nc(-c2ccc(NC(=O)NC3CC3)cc2)nc2c1CN(CC(C)(C)C)C2` [Example 25, (S)-1-cyclopropyl-3-(4-(4-(3-methylmorpholino)-6-neopentyl-6,7-dihydro-5H-pyrrolo[3,4-d]pyrimidin-2-yl)phenyl)urea], the pIC50 at PI3 Kbeta (PI3 Kb) (setting [2]) is less than 5.00; in assay [1], 7.01.
For `CCNC(=O)Nc1ccc(-c2nc3c(c(N4CCOC[C@@H]4C)n2)CCN(CC)C3)cc1` [Example 27, (S)-1-ethyl-3-(4-(7-ethyl-4-(3-methylmorpholino)-5,6,7,8-tetrahydropyrido[3,4-d]pyrimidin-2-yl)phenyl)urea], the pIC50 is 5.00 to 6.00 on PI3 Kbeta (PI3 Kb) (setting [2]) and 7.62 in assay [1].
On to `CCNC(=O)Nc1ccc(-c2nc3c(c(N4CCOC[C@@H]4C)n2)CN(CC2CC2)C3)cc1` [Example 28, (S)-1-(4-(6-(cyclopropylmethyl)-4-(3-methylmorpholino)-6,7-dihydro-5H-pyrrolo[3,4-d]pyrimidin-2-yl)phenyl)-3-ethylurea], for which the pIC50 was less than 5.00 on PI3 Kbeta (PI3 Kb) (setting [2]) and 7.14 in assay [1].
On to `CCNC(=O)Nc1ccc(-c2nc3c(c(N4CCOC[C@@H]4C)n2)CN(Cc2ccc(F)cc2)C3)cc1` [Example 29, (S)-1-ethyl-3-(4-(6-(4-fluorobenzyl)-4-(3-methylmorpholino)-6,7-dihydro-5H-pyrrolo[3,4-d]pyrimidin-2-yl)phenyl)urea], for which the results for the pIC50 (on PI3 Kbeta (PI3 Kb) (setting [2]); in assay [1]) were less than 5.00 and 6.89, respectively.
In the same order, the values of `CCOC(=O)N1Cc2nc(-c3ccc(NC(=O)NC4CC4)cc3)nc(N3CCOC[C@@H]3C)c2C1` [Example 34, (S)-ethyl 2-(4-(3-cyclopropylureido)phenyl)-4-(3-methylmorpholino)-5H-pyrrolo[3,4-d]pyrimidine-6(7H)-carboxylate] are less than 5.00 and 7.31.
As for `CCNC(=O)Nc1ccc(-c2nc3c(c(N4CCOC[C@@H]4C)n2)CCN(C)C3)cc1` [Example 35, (S)-1-ethyl-3-(4-(7-methyl-4-(3-methylmorpholino)-5,6,7,8-tetrahydropyrido[3,4-d]pyrimidin-2-yl)phenyl)urea], the pIC50 is less than 5.00 at PI3 Kbeta (PI3 Kb) (setting [2]) and 7.43 in assay [1].
With `CCNC(=O)Nc1ccc(-c2nc3c(c(N4CCOC[C@@H]4C)n2)CCN(CC2CC2)C3)cc1` [Example 37, (S)-1-(4-(7-(cyclopropylmethyl)-4-(3-methylmorpholino)-5,6,7,8-tetrahydropyrido[3,4-d]pyrimidin-2-yl)phenyl)-3-ethylurea], the pIC50 at PI3 Kbeta (PI3 Kb) (setting [2]) is less than 5.00; in assay [1], 7.07.
For `C[C@H]1COCCN1c1nc(-c2ccc(NC(=O)NC3CC3)cc2)nc2c1CCN(CC1CC1)C2` [Example 40, (S)-1-cyclopropyl-3-(4-(7-(cyclopropylmethyl)-4-(3-methylmorpholino)-5,6,7,8-tetrahydropyrido[3,4-d]pyrimidin-2-yl)phenyl)urea], the pIC50 is 5.00 to 6.00 at PI3 Kbeta (PI3 Kb) (setting [2]) and 7.15 in assay [1].
In the same order, the values of `C[C@H]1COCCN1c1nc(-c2ccc(NC(=O)NC3CC3)cc2)nc2c1CCN(CC(C)(C)C)C2` [Example 41, (S)-1-cyclopropyl-3-(4-(4-(3-methylmorpholino)-7-neopentyl-5,6,7,8-tetrahydropyrido[3,4-d]pyrimidin-2-yl)phenyl)urea] are less than 5.00 and 6.92.
For the molecule `CC(C)CN1CCc2c(nc(-c3ccc(NC(=O)NC4CC4)cc3)nc2N2CCOC[C@@H]2C)C1` [Example 42, (S)-1-cyclopropyl-3-(4-(7-isobutyl-4-(3-methylmorpholino)-5,6,7,8-tetrahydropyrido[3,4-d]pyrimidin-2-yl)phenyl)urea], the pIC50 on PI3 Kbeta (PI3 Kb) (setting [2]) is less than 5.00; in assay [1], 6.98.
For `CC(C)N1CCc2c(nc(-c3ccc(NC(=O)NC4CC4)cc3)nc2N2CCOC[C@@H]2C)C1` [Example 43, (S)-1-cyclopropyl-3-(4-(7-isopropyl-4-(3-methylmorpholino)-5,6,7,8-tetrahydropyrido[3,4-d]pyrimidin-2-yl)phenyl)urea], the figures for the pIC50 (on PI3 Kbeta (PI3 Kb) (setting [2]); in assay [1]) were 5.00 to 6.00 and 7.15, respectively.
In the same order, the values of `C[C@H]1COCCN1c1nc(-c2ccc(NC(=O)NC3CC3)cc2)nc2c1CN(C(=O)C(C)(C)C)C2` [Example 45, (S)-1-cyclopropyl-3-(4-(4-(3-methylmorpholino)-6-pivaloyl-6,7-dihydro-5H-pyrrolo[3,4-d]pyrimidin-2-yl)phenyl)urea] are less than 5.00 and 7.20.
In the same order, the values of `C[C@H]1COCCN1c1nc(-c2ccc(NC(=O)Nc3ccc(F)cc3)cc2)nc2c1CN(C)C2` [Example 52, (S)-1-(4-fluorophenyl)-3-(4-(6-methyl-4-(3-methylmorpholino)-6,7-dihydro-5H-pyrrolo[3,4-d]pyrimidin-2-yl)phenyl)urea] are less than 5.00 and 7.05.
As for `CCNC(=O)Nc1ccc(-c2nc3c(c(N4CCOC[C@@H]4C)n2)CCN(C(=O)C2CC2)C3)cc1` [Example 56, (S)-1-(4-(7-(cyclopropanecarbonyl)-4-(3-methylmorpholino)-5,6,7,8-tetrahydropyrido[3,4-d]pyrimidin-2-yl)phenyl)-3-ethylurea], the pIC50 at PI3 Kbeta (PI3 Kb) (setting [2]) is less than 5.00; in assay [1], 7.49.
Regarding `CCNC(=O)Nc1ccc(-c2nc3c(c(N4CCOC[C@@H]4C)n2)CCN(C(=O)C(C)C)C3)cc1` [Example 57, (S)-1-ethyl-3-(4-(7-isobutyryl-4-(3-methylmorpholino)-5,6,7,8-tetrahydropyrido[3,4-d]pyrimidin-2-yl)phenyl)urea], the pIC50 is less than 5.00 on PI3 Kbeta (PI3 Kb) (setting [2]) and 7.49 in assay [1].
`CCNC(=O)Nc1cc(F)c(-c2nc3c(c(N4CCOC[C@@H]4C)n2)CN(C(=O)OCC)C3)cc1F` [Example 141, (S)-ethyl 2-(4-(3-ethylureido)-2,5-difluorophenyl)-4-(3-methylmorpholino)-5H-pyrrolo[3,4-d]pyrimidine-6(7H)-carboxylate]: the pIC50 at PI3 Kbeta (PI3 Kb) (setting [3]) is less than 5.00; in assay [1], 6.08.
Take `COC(=O)N1Cc2nc(-c3ccc(NC(=O)NC4CC4)cc3F)nc(N3CCOC[C@@H]3C)c2C1` [Example 146, (S)-methyl 2-(4-(3-cyclopropylureido)-2-fluorophenyl)-4-(3-methylmorpholino)-5H-pyrrolo[3,4-d]pyrimidine-6(7H)-carboxylate]: the pIC50 on PI3 Kbeta (PI3 Kb) (setting [3]) is less than 5.00; in assay [1], 7.02.
On to `C[C@H]1COCCN1c1nc(-c2ccc(NC(=O)NC3CC3)cc2F)nc2c1CN(C)C2` [Example 147, (S)-1-cyclopropyl-3-(3-fluoro-4-(6-methyl-4-(3-methylmorpholino)-6,7-dihydro-5H-pyrrolo[3,4-d]pyrimidin-2-yl)phenyl)urea], for which the pIC50 at PI3 Kbeta (PI3 Kb) (setting [3]) is less than 5.00; in assay [1], 6.55.
In the same order, the values of `CCNC(=O)Nc1ccc(-c2nc3c(c(N4CCOCC4)n2)CN(C(=O)OCC)C3)c(F)c1` [Example 151, Ethyl 2-(4-(3-ethylureido)-2-fluorophenyl)-4-morpholino-5H-pyrrolo[3,4-d]pyrimidine-6(7H)-carboxylate] are less than 5.00 and 6.82.
As to `CCNC(=O)Nc1ccc(-c2nc3c(c(N4CCOC[C@@H]4C)n2)CN(C(=O)OC)C3)c(F)c1` [Example 152, (S)-methyl 2-(4-(3-ethylureido)-2-fluorophenyl)-4-(3-methylmorpholino)-5H-pyrrolo[3,4-d]pyrimidine-6-(7H)-carboxylate], the pIC50 is less than 5.00 on PI3 Kbeta (PI3 Kb) (setting [3]) and 7.03 in assay [1].
For the molecule `CCNC(=O)Nc1ccc(-c2nc3c(c(N4CCOC[C@@H]4C)n2)CN(C(=O)OC(C)(C)C)C3)c(F)c1` [Example 153, (S)-tert-butyl 2-(4-(3-ethylureido)-2-fluorophenyl)-4-(3-methylmorpholino)-5H-pyrrolo[3,4-d]pyrimidine-6-(7H)-carboxylate], the results for the pIC50 (on PI3 Kbeta (PI3 Kb) (setting [3]); in assay [1]) were less than 5.00 and 6.85, respectively.
With `CCNC(=O)Nc1ccc(-c2nc3c(c(N4CCOCC4)n2)CN(C)C3)c(F)c1` [Example 154, 1-ethyl-3-(3-fluoro-4-(6-methyl-4-morpholino-6,7-dihydro-5H-pyrrolo[3,4-d]pyrimidin-2-yl)phenyl)urea], the pIC50 on PI3 Kbeta (PI3 Kb) (setting [3]) is less than 5.00; in assay [1], 6.36.
On to `CC(=O)N1Cc2nc(-c3ccc(NC(=O)NC4CC4)cc3F)nc(N3CCOC[C@@H]3C)c2C1` [Example 155, (S)-1-(4-(6-acetyl-4-(3-methylmorpholino)-6,7-dihydro-5H-pyrrolo[3,4-d]pyrimidin-2-yl)-3-fluorophenyl)-3-cyclopropylurea], for which the pIC50 at PI3 Kbeta (PI3 Kb) (setting [3]) was less than 5.00; in assay [1] it was 6.09.
